Key:
[1] = system: untreated prehypertensive males and females; assay: 24-hour ambulatory blood pressure and heart rate (peripheral BP at the brachial artery), randomised controlled cross-over study; format: in vivo, humans; details: for some time after ingestion
Description: In a randomised controlled cross-over study with 42 untreated prehypertensive males and females the effect of cocoa-containing drinks either high in polyphenols or high in polyphenols and theobromine was assessed on blood pressure (BP).
The subjects consumed for 3 weeks daily (in the morning before breakfast) 200 ml acidified dairy drink as in table 1, with added to that 1) none (control drink), 2) 3.65 g cocoa powder (Acticoa, Barry-Callebaut) containing 500 mg polyphenols and 79 mg theobromine (amount in product specification Acticoa) and 3) 5 g cocoa powder containing 500 mg polyphenols and 79 mg theobromine plus added thereto 918 mg pure theobromine (Fagron, Ph. […]
Peripheral BP was measured by 24-hours ambulatory BP at the brachial artery, while central blood pressure was measured by applanation tonometry at the radial artery, using a transfer function to estimate central pulse wave forms, systolic and diastolic BP (SBP and DBP, respectively), pulse pressure (SBP-DBP) and augmentation index. […]
An automatic ambulatory BP monitor (Spacelabs 90207, Spacelabs In., Redmond, Wash., USA) was placed on the non-dominant arm in all subjects. Systolic and diastolic BP and heart rate (HR) were recorded over at least 24 h. […]
Baseline data was expressed as mean plus standard deviation for variables with a parametric distribution and median plus range for variables with a skewed distribution. […]

[2] = system: untreated prehypertensive males and females; assay: Central blood pressure by applanation tonometry at the radial artery (pulse wave analysis), randomised controlled cross-over study; format: in vivo, humans
Description: In a randomised controlled cross-over study with 42 untreated prehypertensive males and females the effect of cocoa-containing drinks either high in polyphenols or high in polyphenols and theobromine was assessed on blood pressure (BP). The subjects consumed for 3 weeks daily (in the morning before breakfast) 200 ml acidified dairy drink as in table 1, with added to that 1) none (control drink), 2) 3.65 g cocoa powder (Acticoa, Barry-Callebaut) containing 500 mg polyphenols and 79 mg theobromine (amount in product specification Acticoa) and 3) 5 g cocoa powder containing 500 mg polyphenols and 79 mg theobromine plus added thereto 918 mg pure theobromine (Fagron, Ph. […] Peripheral BP was measured by 24-hours ambulatory BP at the brachial artery, while central blood pressure was measured by applanation tonometry at the radial artery, using a transfer function to estimate central pulse wave forms, systolic and diastolic BP (SBP and DBP, respectively), pulse pressure (SBP-DBP) and augmentation index. […] Augmentation index (AIx), defined as the ratio of augmentation to central pulse pressure, is expressed as a percentage: AIx=(ΔP/PP)×100, where P is pressure and PP is pulse pressure. […] Pulse pressure amplification (PPA) is expressed as the ratio of […]: PPA=PPP/CPP. […]

Cn1cnc2c1c(=O)[nH]c(=O)n2C [theobromine, 3,7-dimethylxanthine]
heart rate after ingestion of the effective amount (in words) [1]: elevated | peripheral BP after ingestion of the effective amount (in words) [1]: elevated | reduction of central blood pressure compared to when theobromine is not ingested ([2]; ingestion in an effective amount): at least 2 mmHg | reduction of central BP ([2]; single daily dose of 1000 mg theobromine, p=0.003): 3.3%

Reference: patent publication US20130052280A1, “USE OF THEBROMINE FOR LOWERING CENTRAL BLOOD PRESSURE” (priority 2010, published 2013)
